According to patent US20110124742A1, “COMPOSITION AND METHOD OF ADIPOSE CELL DIFFERENTIATION INHIBITION” (NATIONAL YANG-MING UNIVERSITY, priority 2008, published 2011):

How the values were obtained:
Assay type in all cases: cell-based
3T3-L1 adipose cell [1] = assay: MTT assay, cell viability of 3T3-L1 adipose cell; conditions: 0.25 mM (maximal amount)
3T3-L1 adipose cell [2] = assay: 3T3-L1 adipose cell differentiation assay, triglyceride content per unit protein; conditions: day 9, control 0.1% DMSO
Protocol: In the present invention, 3T3-L1 fibroblast cell is purchased from Bioresource collection and research center. Medium for 3T3-L1 fibroblast cell culture contains 10% (v/v) FBS, Dulbecco's modified Eagle's high-glucose medium containing 1% (v/v) penicillin (10000 U/ml) and streptomycin (10 mg/ml). Cell culture is performed in 37 C, 10% CO2 incubators. Subculture is performed at 80-90% cell confluence. After cell reaches 100% confluence, differentiation solution is used for differentiation. The complete differentiation takes 9 days. Differentiation solution contains 0.5 mM IBMX, 10 μg/ml insulin, 0.5 μM dexamethasone in 10% FBS DMEM. Two or three days after 3T3-L1 fibroblast cell reaching 100% confluence (day 0), the original 10% FBS DMEM is removed and differentiation solution is added. Replace cell culture medium at day 3 and day 6 with 10% FBS DMEM containing 10 μg/ml insulin. Harvest cells at day 9 of differentiation for cell morphology observation (Juan, C. C.; Chang, C. L.; Lai, Y. H.; Ho, L. T., Endothelin-1 induces lipolysis in 3T3-L1 adipocytes. Am. J. Physiol. Endocrinol. Metab. 2005, 288, E1146-52).
Mature 3T3-L1 adipose cell stores energy in the form of triglyceride of cell's oil drop. In order to study if plant essential oil is able to inhibit lipid accumulation in 3T3-L1 pre-adipose cell, we use cellular accumulated triglyceride content as an indicator of adipose cell differentiation. The examination method is as follows. Remove 3T3-L1 cell culture medium, wash cell with PBS for three times. Add protein lysis buffer (50 mM Tris-HCl, 150 mM NaCl, 0.5% sodium deoxycholate, 1% NP-40, 0.1% SDS) containing 10-fold diluted protease inhibitor into each well. Transfer mixture of scraped cells and buffer into microcentrifuge tube. Take 5 μl of homogenized cell mixture and 250 μl of reagent for reaction. The reaction is complete at room temperature in 1 hour, and then detects OD550 nm. Use OD value to calculate triglyceride concentration from a Merck multi-system calibrator generated standard curve. Determine triglyceride and protein concentration in each well, and the division of these two values (mg TG/mg protein) represents triglyceride content per unit protein in the cell. […]
Dilute Acorus essential oil (density 1.10 g/ml) to 25, 62.5, and 125 mg/ml with DMSO. Until cell growth reaches post confluence (day 0), diluted Acorus essential oil solution is added into differentiation solution in 1:1000 dilution into cell (final concentration is 25, 62.5, and 125 μg/ml). While replacing growth medium containing insulin at day 3 and day 6, replenish each concentration of Acorus essential oil in culture medium as well as the ones adding 0.1% DMSO as controls. The analysis at day 9 discovered that 25 μg/ml Acorus essential oil reduces triglyceride content per cell unit protein to 77% relative to its control. Acorus essential oil at 62.5 and 125 μg/ml essential oil reduces it to 55% and 20% relative to its control (FIG. 2a).
Ten ml of Acorus essential oil dissolved in hexane (5 ml essential oil and 5 ml hexane) is loaded into prepacked silica gel glass column and eluted by hydrophobicity (Table 2). Essential oil can be separated into 5 portions based on each component's hydrophobicity. Remove elution solvent by lypholizer, dissolve each component in 2 ml DMSO or methanol, and store it in glass vial. 3T3-L1 is used as a cell model, we add various fractions in DMSO or methanol at concentration of 50 μg/ml into cell differentiation medium and growth medium. At day 9 of complete differentiation, analyze triglyceride content per cell unit protein. […] Therefore, the second fraction has been chosen for further analysis.
After identifying the second fraction of Acorus essential oil as α-asarone and β-asarone, we further examine the effect of these two compounds on adipose cell differentiation inhibition. We dissolve α-asarone and β-asarone in DMSO to make concentration of 0.015, 0.03, 0.06, 0.13, and 0.25 M solution. […]

PPARγ [3] = assay: PPARγ mRNA expression by RT-PCR in 3T3-L1 cell; conditions: 3 days, GAPDH internal control
Protocol: (§1) RNA extraction: Remove 3T3-L1 cell medium directly from 10 cm petri dish, add 1 ml of Trizol reagent, and scrape off cells. Transfer cell and reagent mixture into a microcentrifuge tube. Add 200 μl chloroform in each tube and vortex for 15 seconds until it is clouded. Leave it on ice for 2-3 minutes at 4 C, spin it at 12000 rpm for 20 minutes. Transfer supernatant to another microcentrifuge tube, add equal amount of isopropylalcohol, mix and leave it on ice for 10 minutes. Spin it at 12000 rpm for 10 minutes at 4 C. After centrifugation, remove supernatant and save RNA pellet in the bottom. Add 75% cold ethanol, spin it at 7500 rpm for 10 minutes at 4 C. Remove ethanol after centrifugation and air dry the pellet until the edge is clear. Add appropriate amount of DEPC H2O to dissolve RNA pellet, and determine RNA concentration by OD260/OD280 nm with a spectrophotometer.
(§2) RT-PCR: Take 2 μg of RNA for reverse transcription reaction. Mix RNA, DEPC H2O and 0.25 μg random primer to make total volume of 12 μl. Keep it at 70 C for 10 minutes, and then leave it on ice. Add 4 μl of 5× first-strand buffer, 2 μl of 0.1 M dithiothreitol, 1 μl of 10 mM dNTP and 1 μl of SuperScript™ II reverse transcriptase 200 U/μl. Keep it at 42 C for 1.5 hours, and then heat it at 70 C for 15 minutes to stop reverse transcription. Take 1 μl of cDNA from reverse transcription, mix with 5 μl of 10×PCR buffer, 1 μl of 10 mM dNTP, 2 μl of primer, 40.5 μl of sterile water, and 0.5 μl of Taq DNA polymerase (1 U/μl) for PCR reaction. The SEQ ID NO: 1 to SEQ ID NO: 6 is listed from the top to bottom accordingly. PCR program is listed as follows: 95 C/5 min; 25˜30 cycles of 95 C/1 min, 55 C/1 min, 72 C/1 min; 72 C/10 min, and stop reaction at 4 C.
(§3) Because PPARγ and C/EBPα are early marker genes during adipose cell differentiation, these genes have been analyzed from cells harvested after 3 days of β-asarone addition. […]

PPARγ [4] = assay: PPARγ protein expression by western blot in 3T3-L1 cell; conditions: 3 days, α-tubulin internal control
Protocol: (§4) Western blot analysis: Prepare 12% SDS-PAGE as follows. Recipe of separating gel contains 2.5 ml of 1.5 M Tris-HCl pH 8.8, 100 μl of 10% SDS, 3 ml of acrylamide/bis (37.5:1; 40%), 4.35 ml RO water, 50 μl of 10% ammonium persulfate, and 5 μl of TEMED. Recipe of stacking gel contains 1.25 ml of 0.5 M Tris-HCl pH 6.8, 50 μl of 10% SDS, 0.065 ml of acrylamide/bis (37.5:1; 40%), 3.05 ml of RO water, 25 μl of APS and 5 μl of TEMED. Load same amount of protein in each well, and electrophoresis is performed under 100V for 2 hours. Prepare transfer buffer (10 mM CAPS-NaOH, 10% methanol, pH 11.0), and use methanol to rinse PVDF transfer membrane. After electrophoresis is complete, remove SDS-PAGE gel, cover the gel and PVDF membrane with transfer buffer rinsed 3 MM paper. Put it into transfer tank full of transfer buffer, electrophoresis under 500 mA for 1 hour. Take transfer membrane out, block it with 5% skim milk in TBST (20 mM Tris, 137 mM NaCl, 0.01% Tween-20), and wash it with TBST briefly. Add primary antibody for 2-hour reaction, wash membrane with TBST for three times, 15 minutes each. Add appropriate amount of secondary antibody for 1 hour, wash membrane with TBST for three times, 15 minutes each. In the end, evenly cover ECL on the transfer membrane, place membrane in the film cassette, and expose it to X-ray film. Develop the film for analysis.
(§5) Analyze cells of β-asarone supplement for 3 days by western analysis. The expression of PPARγ from cells treated with β-asarone at concentration of 0.03, 0.06, and 0.13 mM is 97%, 117%, and 111% relative to its normal differentiated control with no significant difference. When β-asarone reaches 0.25 mM, the expression of PPARγ reduces to 45% relative to its control (FIG. 12). In terms of another differentiation marker gene C/EBPα, the expression of C/EBPα treated with β-asarone at concentrations of 0.03 and 0.06 mM is 113% and 77% relative to its control with no statistical difference. However, when β-asarone reaches 0.13 mM and 0.25 mM, the expression of C/EBPα reduces to 43% and 33% relative to its control (FIG. 13).

C/EBPα [5] = assay: C/EBPα protein expression by western blot in 3T3-L1 cell; conditions: 3 days, α-tubulin internal control
Protocol: as §4, §5

3T3-L1 adipose cell [6] = assay: Oil red staining of 3T3-L1 adipose cell; conditions: 0.03, 0.06, 0.13, 0.25 mM, day 9
Protocol: Acorus essential oil inhibition effect on cell differentiation can be visualized under microscope by oil red staining. It is performed as follows. Dissolve 0.03 g of Oil red O in 10 ml of isopropylalcohol as stock solution. Mix 2.4 ml of stock solution and 1.6 ml of PBS and filter it before staining. Remove medium from cells, add appropriate amount of filtered staining solution for 15 minutes, wash cell three times with PBS for 5 minutes each, and then add 4% paraformaldehyde for 15 minutes to fix cells, repeat wash step by PBS. Add 0.1% Triton X-100 for 30 seconds, and repeat wash step by PBS. Add appropriate amount of hematoxylin for 30 seconds followed by one last wash step by PBS. Observe the image under a microscope and record the image.

C/EBPα [7] = assay: C/EBPα mRNA expression by RT-PCR in 3T3-L1 cell; conditions: 3 days, GAPDH internal control
Protocol: as §1, §2, §3

Row | Structure (SMILES) | cell viability rate relative to normal differentiated control (3T3-L1 adipose cell [1]) | triglyceride content relative to normal differentiation control (3T3-L1 adipose cell [2]; 0.015 mM) | triglyceride content relative to normal differentiation control (3T3-L1 adipose cell [2]; 0.03 mM) | triglyceride content relative to normal differentiation control (3T3-L1 adipose cell [2]; 0.06 mM) | triglyceride content relative to normal differentiation control (3T3-L1 adipose cell [2]; 0.13 mM) | triglyceride content relative to normal differentiation control (3T3-L1 adipose cell [2]; 0.25 mM) | PPARγ mRNA expression relative to normal differentiated control (PPARγ [3]; 0.03 mM) | PPARγ mRNA expression relative to normal differentiated control (PPARγ [3]; 0.06 mM) | PPARγ mRNA expression relative to normal differentiated control (PPARγ [3]; 0.13 mM) | PPARγ protein expression relative to normal differentiated control (PPARγ [4]; 0.03 mM) | PPARγ protein expression relative to normal differentiated control (PPARγ [4]; 0.06 mM) | PPARγ protein expression relative to normal differentiated control (PPARγ [4]; 0.13 mM) | C/EBPα protein expression relative to its control (C/EBPα [5]; 0.03 mM) | C/EBPα protein expression relative to its control (C/EBPα [5]; 0.06 mM) | C/EBPα protein expression relative to its control (C/EBPα [5]; 0.25 mM) | oil red staining, red oil covered area (3T3-L1 adipose cell [6]) | C/EBPα mRNA expression relative to normal differentiated control (C/EBPα [7]; 0.03 mM) | C/EBPα mRNA expression relative to normal differentiated control (C/EBPα [7]; 0.06 mM) | C/EBPα mRNA expression relative to normal differentiated control (C/EBPα [7]; 0.13 mM)
1 | C/C=C/c1cc(OC)c(OC)cc1OC (single isomer, unassigned) [α-asarone, reference compound] | 78% | 107% | 106% | 99% | 104% | 105% | – | – | – | – | – | – | – | – | – | – | – | – | –
2 | C/C=C\c1cc(OC)c(OC)cc1OC (single isomer, unassigned) [β-asarone] | 79% | 101% | 90% | 91% | 66% | 47% | 96% | 94% | 90% | 97% | 117% | 111% | 113% | 77% | 33% | red oil covered area is decreasing | 99% | 94% | 96%
